Tests used:
[1] = test system: CaTMPK; experiment: One-dimensional proton NMR activity assay of CaTMPK; format: biochemical, Candida albicans; details: substance as phosphate acceptor (1 mM), 1 mM ATP as phosphate donor, pH 7.4
Text: Three different methods to assay for TMK activity have been reported in the literature. The first method uses isotope labeled [^14C] dTMP as substrate and utilizes the separation of dTMP and dTDP by thin-layer chromatography (TLC). The next method is a coupled enzymatic assay which involves the use of pyruvate kinase and lactate dehydrogenase to couple the production of ADP (a product of TMK activity) to the oxidation of NADH to NAD^+ which can be monitored spectrophotometrically at 340 nm. The third protocol involves the use of luciferin/luciferase to measure the concentration of unreacted ATP, or the amount to ADP in the TMK reaction mixture. All of these assays have inherent problems, ranging from the use of radioactivity to the potential inhibition of the coupling enzymes. Consequently, a simple one step assay to monitor the conversion of TMP to TDP was developed. The assay relies on the difference in the pyrimidine H6 proton chemical shifts of TMP and TDP (see FIG. 4). […] The new assay of the present invention also allows for the near-continuous measurement of product production, while current high-throughput assays are quench-stop type assays.
One-dimensional proton (^1H) NMR was used to monitor the activity of CaTMPK. The assay depends on the change in the chemical shift of the H6 proton (dTMP, AZTMP) or the H8 proton (dGMP) of the nucleobases upon the addition of the second phosphate group. The assay reaction included 50 mM Tris-HCl (pH 7.4), 50 mM KCl, 10 mM MgCl2, 1 mM ATP as the phosphate donor, 1 mM phosphate acceptor (dTMP, AZTMP or dGMP) and 10% D20. The reaction was initiated by the addition of CaTMPK to the reaction mix. A series of ^1H NMR spectra were acquired and the area (or height) of the proton line corresponding to the monophosphate forms of the acceptor molecule was plotted against time to calculate the initial rates of catalysis for each of the three substrates.

[2] = test system: CaTMPK; experiment: NADH coupled enzyme activity assay (pyruvate kinase/lactate dehydrogenase) of CaTMPK; format: biochemical, Candida albicans; details: substance as phosphate acceptor, NADH decrease at 340 nm, pH 7.4
Protocol: The NADH coupled enzyme activity assay (Blondin, C., et al. (1994). Improved spectrophotometric assay of nucleoside monophosphate kinase activity using the pyruvate kinase/lactate dehydrogenase coupling system. Anal. Biochem 220, 219-221) is a well established assay to monitor the enzyme activity of thymidylate kinases. The assay was used to measure the activity of CaTMPK with the different phosphate acceptors (dTMP, AZTMP or dGMP). The reaction mixture consisted of 50 mM Tris-HCl (pH 7.4), 50 mM KCl, 10 mM MgCl2, 0.5 mM phosphoenolpyruvate, 0.15 mM NADH, 5 units/mL each of pyruvate kinase and lactate dehydrogenase. The reaction was initiated by adding the enzyme and the reaction rate was measured by monitoring the decrease of NADH concentration at 340 nm.

SMILES	kcat, nmr assay [1]	kcat, coupled enzyme assay [2]
Cc1cn([C@H]2C[C@H](N=[N+]=[N-])[C@@H](COP(=O)(O)O)O2)c(=O)[nH]c1=O [AZTMP, azidothymidine monophosphate]	0.533 s⁻¹	0.305 s⁻¹
Cc1cn([C@H]2C[C@H](O)[C@@H](COP(=O)(O)O)O2)c(=O)[nH]c1=O [dTMP, deoxythymidine monophosphate]	8.33 s⁻¹	6.85 s⁻¹
Nc1nc2c(ncn2[C@H]2C[C@H](O)[C@@H](COP(=O)(O)O)O2)c(=O)[nH]1 [dGMP]	0.00617 s⁻¹	0.0083 s⁻¹
